From US20260159512A1, “BCAT2 INHIBITORS” (AGIOS PHARMACEUTICALS, INC., priority 2021, published 2026)
pIC50: −log10 of the molar value.

Experiments:
Conditions in all cases: average where tested multiple times
[1] = biological target: T1, hBCAT1 (Homo sapiens, UniProt P54687); experiment: BCAT1 in vitro enzyme inhibition assay (resazurin/diaphorase-coupled fluorescence); format: biochemical
T1 sequence (P54687 1-386): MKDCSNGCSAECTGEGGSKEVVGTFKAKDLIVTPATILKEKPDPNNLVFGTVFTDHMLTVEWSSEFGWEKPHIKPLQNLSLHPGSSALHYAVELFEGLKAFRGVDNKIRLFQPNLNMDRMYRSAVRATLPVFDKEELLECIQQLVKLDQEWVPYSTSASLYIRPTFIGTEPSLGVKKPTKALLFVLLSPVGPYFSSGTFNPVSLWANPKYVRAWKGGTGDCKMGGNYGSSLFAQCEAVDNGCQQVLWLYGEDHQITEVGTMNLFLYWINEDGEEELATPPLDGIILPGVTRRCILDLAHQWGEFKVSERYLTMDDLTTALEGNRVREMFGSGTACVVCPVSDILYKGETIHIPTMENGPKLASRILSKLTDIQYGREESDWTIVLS
In short: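 Human BCAT1 activity read by resazurin/diaphorase-coupled fluorescence. Compounds added from 50× DMSO stocks at 1:50, giving 10-point 3-fold titrations from 100 μM top final concentration. Run in technical duplicate; repeat tests averaged.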

[2] = biological target: T2, BCAT2 (Homo sapiens, UniProt O15382); experiment: BCAT2 in vitro enzyme inhibition assay (resazurin/diaphorase-coupled fluorescence); format: biochemical
T2 sequence (O15382 28-392): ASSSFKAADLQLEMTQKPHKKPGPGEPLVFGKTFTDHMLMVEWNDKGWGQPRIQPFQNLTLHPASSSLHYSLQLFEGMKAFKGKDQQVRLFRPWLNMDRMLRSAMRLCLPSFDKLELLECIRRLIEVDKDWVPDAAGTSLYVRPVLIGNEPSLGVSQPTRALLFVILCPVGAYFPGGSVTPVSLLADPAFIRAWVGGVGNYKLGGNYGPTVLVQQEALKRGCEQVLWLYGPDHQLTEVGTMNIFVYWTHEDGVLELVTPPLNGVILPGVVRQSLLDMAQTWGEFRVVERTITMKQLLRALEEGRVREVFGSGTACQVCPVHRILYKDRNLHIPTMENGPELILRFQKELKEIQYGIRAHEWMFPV
In short: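 Coupled fluorescence readout: glutamate formed from L-leucine/α-ketoglutarate transamination drives GDH/NAD/diaphorase reduction of resazurin (Ex 540/Em 590). Human BCAT2 was first exposed 1 h at room temperature to compound, top final 100 μM in 3-fold, 10-point series; substrate reaction ran 1 h before SDS quench, in technical duplicate with DMSO max and enzyme-free min controls.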

[3] = biological target: T2, BCAT2; experiment: BCAT2 in vitro cell inhibition using engineered A549 cells (KMV cell assay, 13C6-KMV by LC-MS/MS); format: cell-based; set-up: The result was an engineered A549 cell line that expressed endogenous BCAT2; endogenous in cells; host or cells: A549 cells with MUT and BCAT1 knocked out by CRISPR/CAS9; key to BCAT2 Cell Inhibition: A: less than or equal to 0.100 μM; B: greater than 0.100 and less than or equal to 0.500 μM; C: greater than 0.500 and less than or equal to 1.000 μM; d: greater than 1.000 μM; E: no fit

| SMILES | pIC50 [1] | pIC50 [2] | pIC50 [3] | BCAT2 Cell Inhibition [3] |
| --- | --- | --- | --- | --- |
| O=C(N[C@H]1CCC[C@@H](n2c(Nc3ccccn3)nc3cnc(-n4nccn4)cc32)C1)c1ncc(C(F)F)s1 [Example 69, 5-(difluoromethyl)-N-((1S,3R)-3-(2-(pyridin-2-ylamino)-6-(2H-1,2,3-triazol-2-yl)-1H-imidazo[4,5-c]pyridin-1-yl)cyclohexyl)thiazole-2-carboxamide] | < 5.30 | 6.30 to 7.00 | < 6.00 | – |
| O=C(N[C@H]1CCC[C@@H](n2c(-c3ncccc3F)nc3cnc(-n4cncn4)cc32)C1)c1ncc(C(F)F)s1 [Example 28, 5-(difluoromethyl)-N-((1S,3R)-3-(2-(3-fluoropyridin-2-yl)-6-(1H-1,2,4-triazol-1-yl)-1H-imidazo[4,5-c]pyridin-1-yl)cyclohexyl)thiazole-2-carboxamide] | 5.30 to 6.00 | ≥ 7.00 | 6.00 to 6.30 | – |
| O=C(N[C@@H]1CCCC[C@H](n2c(-c3ccccc3F)nc3cnc(-c4nnc[nH]4)cc32)C1)c1ncc(Cl)s1 (single isomer, unassigned) [Example 87, 5-chloro-N-(3-(2-(2-fluorophenyl)-6-(4H-1,2,4-triazol-3-yl)-1H-imidazo[4,5-c]pyridin-1-yl)cycloheptyl)thiazole-2-carboxamide] | 5.30 to 6.00 | ≥ 7.00 | 6.30 to 7.00 | – |
| O=C(NC1CCCCC(n2c(-c3ccccn3)nc3cnc(-n4nccn4)cc32)C1)c1ncc(C(F)F)s1 (stereo not drawn) [Example 4, 5-(difluoromethyl)-N-(3-(2-(pyridin-2-yl)-6-(2H-1,2,3-triazol-2-yl)-1H-imidazo[4,5-c]pyridin-1-yl)cycloheptyl)thiazole-2-carboxamide] | < 5.30 | ≥ 7.00 | 6.00 to 6.30 | – |
| O=C(N[C@H]1CCC[C@@H](n2c(-c3ccccc3F)nc3cnc(-c4cccnn4)cc32)C1)c1ncc(Cl)s1 [Example 188, 5-chloro-N-((1S,3R)-3-(2-(2-fluorophenyl)-6-(pyridazin-3-yl)-1H-imidazo[4,5-c]pyridin-1-yl)cyclohexyl)thiazole-2-carboxamide] | 5.30 to 6.00 | ≥ 7.00 | 6.30 to 7.00 | – |
| CN1C[C@@H](NC(=O)c2ncc(Cl)s2)C[C@@H](n2c(-c3ccccc3F)nc3cnc(-c4nc[nH]n4)cc32)C1 (single isomer, unassigned) [Example 133] | 5.30 to 6.00 | 6.30 to 7.00 | < 6.00 | – |
| COCc1nc2cnc(-c3nc[nH]n3)cc2n1[C@@H]1CCC[C@H](NC(=O)c2ncc(Cl)s2)C1 [Example 91, 5-chloro-N-[(1S,3R)-3-[2-(methoxymethyl)-6-(1H-1,2,4-triazol-3-yl)imidazo[4,5-c]pyridin-1-yl]cyclohexyl]thiazole-2-carboxamide] | 5.30 to 6.00 | 6.30 to 7.00 | < 6.00 | – |
| O=C(NC1COCC(n2c(-c3ncccc3F)nc3cnc(-n4nccn4)cc32)C1)c1ncc(C(F)F)s1 (single isomer, unassigned) [Example 139, 5-(difluoromethyl)-N-(5-(2-(3-fluoropyridin-2-yl)-6-(2H-1,2,3-triazol-2-yl)-1H-imidazo[4,5-c]pyridin-1-yl)tetrahydro-2H-pyran-3-yl)thiazole-2-carboxamide] | < 5.30 | < 6.00 | – | E |
| CC(C)Cc1nc2cnc(-c3cccc(CO)n3)cc2n1[C@@H]1CCC[C@H](NC(=O)c2ncc(Cl)s2)C1 [Example 311, 5-chloro-N-((1S,3R)-3-(6-(6-(hydroxymethyl)pyridin-2-yl)-2-isobutyl-1H-imidazo[4,5-c]pyridin-1-yl)cyclohexyl)thiazole-2-carboxamide] | 5.30 to 6.00 | ≥ 7.00 | 6.00 to 6.30 | – |

The remaining lines, values ahead:

| pIC50 [1] | pIC50 [2] | pIC50 [3] | BCAT2 Cell Inhibition [3] | SMILES |
| --- | --- | --- | --- | --- |
| 5.30 to 6.00 | ≥ 7.00 | ≥ 7.00 | – | CO[C@@H]1C[C@@H](NC(=O)c2ncc(Cl)s2)C[C@@H](n2c(-c3ccccc3F)nc3cnc(-n4cncn4)cc32)C1 (stereo in doubt) [Example 416, 5-chloro-N-((1S,3R,5R)-3-(2-(2-fluorophenyl)-6-(1H-1,2,4-triazol-1-yl)-1H-imidazo[4,5-c]pyridin-1-yl)-5-methoxycyclohexyl)thiazole-2-carboxamide] |
| > 6.30 | ≥ 7.00 | ≥ 7.00 | – | O=C(N[C@H]1CCC[C@@H](n2c(-c3ccccc3F)nc3cnc(-c4cnn[nH]4)cc32)C1)c1ncc(Cl)s1 [Example 189, 5-chloro-N-((1S,3R)-3-(2-(2-fluorophenyl)-6-(1H-1,2,3-triazol-5-yl)-1H-imidazo[4,5-c]pyridin-1-yl)cyclohexyl)thiazole-2-carboxamide] |
| > 6.30 | ≥ 7.00 | ≥ 7.00 | – | CC(C)Cc1nc2cnc(-c3nccs3)cc2n1C1CCCC(NC(=O)c2ncc(Cl)s2)C1O (stereo not drawn) [Example 386, 5-chloro-N-(2-hydroxy-3-(2-isobutyl-6-(thiazol-2-yl)-1H-imidazo[4,5-c]pyridin-1-yl)cyclohexyl)thiazole-2-carboxamide] |
| 5.30 to 6.00 | ≥ 7.00 | 6.30 to 7.00 | – | O=C(N[C@H]1CCC[C@@H](n2c(-n3cccn3)nc3cnc(-n4nccn4)cc32)C1)c1ncc(C(F)F)s1 [Example 56, N-((1S,3R)-3-(2-(1H-pyrazol-1-yl)-6-(2H-1,2,3-triazol-2-yl)-1H-imidazo[4,5-c]pyridin-1-yl)cyclohexyl)-5-(difluoromethyl)thiazole-2-carboxamide] |
| > 6.30 | ≥ 7.00 | ≥ 7.00 | – | CO[C@@H]1C[C@@H](NC(=O)c2ccc(Cl)s2)C[C@@H](n2c(-c3ccccc3F)nc3cnc(-c4nc[nH]n4)cc32)C1 (stereo in doubt) [Example 412, 5-chloro-N-((1S,3R,5R)-3-(2-(2-fluorophenyl)-6-(1H-1,2,4-triazol-3-yl)-1H-imidazo[4,5-c]pyridin-1-yl)-5-methoxycyclohexyl)thiophene-2-carboxamide] |
| > 6.30 | ≥ 7.00 | ≥ 7.00 | – | O=C(N[C@H]1CCC[C@@H](n2c(-c3ccccc3F)nc3cnc(-n4ccnn4)cc32)C1)c1ccc(Br)s1 [Example 14, 5-bromo-N-((1S,3R)-3-(2-(2-fluorophenyl)-6-(1H-1,2,3-triazol-1-yl)-1H-imidazo[4,5-c]pyridin-1-yl)cyclohexyl)thiophene-2-carboxamide] |
| 6.00 to 6.30 | ≥ 7.00 | 6.30 to 7.00 | – | O=C(NC1CCCC(n2c(-c3ncccc3F)nc3cnc(-c4nnco4)cc32)C1)c1ccc(Br)s1 (stereo not drawn) [Example 2, 5-bromo-N-(3-(2-(3-fluoropyridin-2-yl)-6-(1,3,4-oxadiazol-2-yl)-1H-imidazo[4,5-c]pyridin-1-yl)cyclohexyl)thiophene-2-carboxamide] |
| > 6.30 | ≥ 7.00 | ≥ 7.00 | – | O=C(N[C@H]1C[C@H](O)C[C@@H](n2c(-c3ccccc3F)nc3cnc(-n4nccn4)cc32)C1)c1ncc(C(F)F)s1 (single isomer, unassigned) [Example 108] |
| 6.00 to 6.30 | ≥ 7.00 | 6.30 to 7.00 | – | Cc1cccnc1-c1nc2cnc(-n3nccn3)cc2n1[C@@H]1CCC[C@H](NC(=O)c2ncc(C(F)F)s2)C1 [Example 60, 5-(difluoromethyl)-N-((1S,3R)-3-(2-(3-methylpyridin-2-yl)-6-(2H-1,2,3-triazol-2-yl)-1H-imidazo[4,5-c]pyridin-1-yl)cyclohexyl)thiazole-2-carboxamide] |
| > 6.30 | ≥ 7.00 | ≥ 7.00 | – | C#Cc1ccc(C(=O)NC2CC(n3c(-c4ccccc4F)nc4cnc(-c5ncco5)cc43)CN(C)C2)s1 (stereo not drawn) [Example 116, 5-ethynyl-N-(5-(2-(2-fluorophenyl)-6-(oxazol-2-yl)-1H-imidazo[4,5-c]pyridin-1-yl)-1-methylpiperidin-3-yl)thiophene-2-carboxamide] |
| > 6.30 | ≥ 7.00 | ≥ 7.00 | – | O=C(N[C@H]1C[C@H](O)C[C@@H](n2c(-c3ccccc3F)nc3cnc(-n4nccn4)cc32)C1)c1ncc(Cl)s1 (single isomer, unassigned) [Example 110] |
